Results taken from the supplement of paper PMC11616607.

test system: OVCAR4; assay: drug sensitivity score (DSS) from 5-point dose-response viability curve (DSS (area-under-curve based score)); higher = more sensitive (stronger growth inhibition or killing); extreme values may be limits of the assay; conditions: exposure time: 72 h; concentration range: 5 concentrations over 10,000-fold range
Method in brief: (§1)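 Viability of ovarian cancer and normal ovarian cell lines was read by CellTiter-Glo luminescence after 3 days at 37°C and 5% CO2 in 384-well plates holding 1,500 cells per well. Drugs had been dispensed in DMSO or water with an Echo 550 at five concentrations over a 10,000-fold range. Using Breeze software, a drug sensitivity score was assigned per cell line and drug, higher scores meaning more sensitive, and zero means no response.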

Structure (SMILES) | drug sensitivity score
Cc1ccc(C(=O)Nc2ccc(CN3CCN(C)CC3)c(C(F)(F)F)c2)cc1C#Cc1cnc2cccnn12 [Ponatinib] | 5.7
C=CC(=O)N1CCC(Oc2cc3c(Nc4ccc(Cl)c(Cl)c4F)ncnc3cc2OC)CC1 [Poziotinib] | 1.3
CCCCc1nc2cc(/C=C/C(=O)NO)ccc2n1CCN(CC)CC [Pracinostat] | 10.4
CC[C@H](C)C(=O)O[C@H]1C[C@H](O)C=C2C=C[C@H](C)[C@H](CC[C@@H](O)C[C@@H](O)CC(=O)O)[C@H]21 [Pravastatin] | 0
C[C@]12C=CC(=O)C=C1CC[C@@H]1[C@@H]2[C@@H](O)C[C@@]2(C)[C@H]1CC[C@]2(O)C(=O)CO [Prednisolone] | 0
COc1cccc(OCCCN)c1-c1cc(Nc2cnc(C#N)cn2)n[nH]1 [Prexasertib] | 21.8
Cn1cc(CNCC2CCN(c3ncc(C(=O)NO)cn3)CC2)c2ccccc21 [Quisinostat] | 8
CC(C)(C)c1cc(NC(=O)Nc2ccc(-c3cn4c(n3)sc3cc(OCCN5CCOCC5)ccc34)cc2)no1 [Quizartinib] | 1.5
Nc1cc(F)ccc1NC(=O)/C=C/c1cnn(C/C=C/c2ccccc2)c1 [RGFP966] | 2.4
COC(=O)c1ccc([C@H]2c3[nH]c4ccccc4c3C[C@H](C(=O)OC)N2C(=O)CCl)cc1 [RSL3] | 0
Cc1cnc(NC(=O)Nc2cc(Br)c(C)cc2OC[C@@H]2CNCCO2)cn1 [Rabusertib] | 1
Cc1cn(-c2cc(NC(=O)c3ccc(C)c(Nc4nccc(-c5cnccn5)n4)c3)cc(C(F)(F)F)c2)cn1 [Radotinib] | 0
CC(C)(C)Cn1c(N)nc2ccc(-c3[nH]c(C(C)(C)C)nc3-c3ccc(F)cc3)nc21 [Ralimetinib] | 1.1
O=C(c1ccc(OCCN2CCCCC2)cc1)c1c(-c2ccc(O)cc2)sc2cc(O)ccc12 [Raloxifene] | 0.3
Cc1nc(=O)c2cc(CN(C)c3ccc(C(=O)N[C@@H](CCC(=O)O)C(=O)O)s3)ccc2[nH]1 [Raltitrexed] | 6.4

test system: OVCAR8; assay: as above; conditions: exposure time: 72 h; concentration range: 5 concentrations over 10,000-fold range
Method in brief: as §1

Structure (SMILES) | drug sensitivity score
Cc1ccc(C(=O)Nc2ccc(CN3CCN(C)CC3)c(C(F)(F)F)c2)cc1C#Cc1cnc2cccnn12 [Ponatinib] | 3.3
C=CC(=O)N1CCC(Oc2cc3c(Nc4ccc(Cl)c(Cl)c4F)ncnc3cc2OC)CC1 [Poziotinib] | 0
CCCCc1nc2cc(/C=C/C(=O)NO)ccc2n1CCN(CC)CC [Pracinostat] | 19.5
CC[C@H](C)C(=O)O[C@H]1C[C@H](O)C=C2C=C[C@H](C)[C@H](CC[C@@H](O)C[C@@H](O)CC(=O)O)[C@H]21 [Pravastatin] | 0
C[C@]12C=CC(=O)C=C1CC[C@@H]1[C@@H]2[C@@H](O)C[C@@]2(C)[C@H]1CC[C@]2(O)C(=O)CO [Prednisolone] | 0.1
COc1cccc(OCCCN)c1-c1cc(Nc2cnc(C#N)cn2)n[nH]1 [Prexasertib] | 30.1
Cn1cc(CNCC2CCN(c3ncc(C(=O)NO)cn3)CC2)c2ccccc21 [Quisinostat] | 18.6
CC(C)(C)c1cc(NC(=O)Nc2ccc(-c3cn4c(n3)sc3cc(OCCN5CCOCC5)ccc34)cc2)no1 [Quizartinib] | 2.2
Nc1cc(F)ccc1NC(=O)/C=C/c1cnn(C/C=C/c2ccccc2)c1 [RGFP966] | 2.3
COC(=O)c1ccc([C@H]2c3[nH]c4ccccc4c3C[C@H](C(=O)OC)N2C(=O)CCl)cc1 [RSL3] | 0
Cc1cnc(NC(=O)Nc2cc(Br)c(C)cc2OC[C@@H]2CNCCO2)cn1 [Rabusertib] | 0
Cc1cn(-c2cc(NC(=O)c3ccc(C)c(Nc4nccc(-c5cnccn5)n4)c3)cc(C(F)(F)F)c2)cn1 [Radotinib] | 0
CC(C)(C)Cn1c(N)nc2ccc(-c3[nH]c(C(C)(C)C)nc3-c3ccc(F)cc3)nc21 [Ralimetinib] | 3.1
O=C(c1ccc(OCCN2CCCCC2)cc1)c1c(-c2ccc(O)cc2)sc2cc(O)ccc12 [Raloxifene] | 1.5
Cc1nc(=O)c2cc(CN(C)c3ccc(C(=O)N[C@@H](CCC(=O)O)C(=O)O)s3)ccc2[nH]1 [Raltitrexed] | 18.4

test system: HOSE2C; assay: as above; conditions: exposure time: 72 h; concentration range: 5 concentrations over 10,000-fold range
Method in brief: as §1

Structure (SMILES) | drug sensitivity score
Cc1ccc(C(=O)Nc2ccc(CN3CCN(C)CC3)c(C(F)(F)F)c2)cc1C#Cc1cnc2cccnn12 [Ponatinib] | 8.5
C=CC(=O)N1CCC(Oc2cc3c(Nc4ccc(Cl)c(Cl)c4F)ncnc3cc2OC)CC1 [Poziotinib] | 0
CCCCc1nc2cc(/C=C/C(=O)NO)ccc2n1CCN(CC)CC [Pracinostat] | 18.5
CC[C@H](C)C(=O)O[C@H]1C[C@H](O)C=C2C=C[C@H](C)[C@H](CC[C@@H](O)C[C@@H](O)CC(=O)O)[C@H]21 [Pravastatin] | 0
C[C@]12C=CC(=O)C=C1CC[C@@H]1[C@@H]2[C@@H](O)C[C@@]2(C)[C@H]1CC[C@]2(O)C(=O)CO [Prednisolone] | 3.3
COc1cccc(OCCCN)c1-c1cc(Nc2cnc(C#N)cn2)n[nH]1 [Prexasertib] | 36.7
Cn1cc(CNCC2CCN(c3ncc(C(=O)NO)cn3)CC2)c2ccccc21 [Quisinostat] | 19
CC(C)(C)c1cc(NC(=O)Nc2ccc(-c3cn4c(n3)sc3cc(OCCN5CCOCC5)ccc34)cc2)no1 [Quizartinib] | 0.8
Nc1cc(F)ccc1NC(=O)/C=C/c1cnn(C/C=C/c2ccccc2)c1 [RGFP966] | 2.4
COC(=O)c1ccc([C@H]2c3[nH]c4ccccc4c3C[C@H](C(=O)OC)N2C(=O)CCl)cc1 [RSL3] | 25.4
Cc1cnc(NC(=O)Nc2cc(Br)c(C)cc2OC[C@@H]2CNCCO2)cn1 [Rabusertib] | 2
Cc1cn(-c2cc(NC(=O)c3ccc(C)c(Nc4nccc(-c5cnccn5)n4)c3)cc(C(F)(F)F)c2)cn1 [Radotinib] | 0
CC(C)(C)Cn1c(N)nc2ccc(-c3[nH]c(C(C)(C)C)nc3-c3ccc(F)cc3)nc21 [Ralimetinib] | 0.5
O=C(c1ccc(OCCN2CCCCC2)cc1)c1c(-c2ccc(O)cc2)sc2cc(O)ccc12 [Raloxifene] | 0
Cc1nc(=O)c2cc(CN(C)c3ccc(C(=O)N[C@@H](CCC(=O)O)C(=O)O)s3)ccc2[nH]1 [Raltitrexed] | 20.3

test system: CAOV3; assay: as above; conditions: exposure time: 72 h; concentration range: 5 concentrations over 10,000-fold range
Method in brief: as §1

Structure (SMILES) | drug sensitivity score
Cc1ccc(C(=O)Nc2ccc(CN3CCN(C)CC3)c(C(F)(F)F)c2)cc1C#Cc1cnc2cccnn12 [Ponatinib] | 2.4
C=CC(=O)N1CCC(Oc2cc3c(Nc4ccc(Cl)c(Cl)c4F)ncnc3cc2OC)CC1 [Poziotinib] | 13.1
CCCCc1nc2cc(/C=C/C(=O)NO)ccc2n1CCN(CC)CC [Pracinostat] | 13.2
CC[C@H](C)C(=O)O[C@H]1C[C@H](O)C=C2C=C[C@H](C)[C@H](CC[C@@H](O)C[C@@H](O)CC(=O)O)[C@H]21 [Pravastatin] | 0
C[C@]12C=CC(=O)C=C1CC[C@@H]1[C@@H]2[C@@H](O)C[C@@]2(C)[C@H]1CC[C@]2(O)C(=O)CO [Prednisolone] | 0
COc1cccc(OCCCN)c1-c1cc(Nc2cnc(C#N)cn2)n[nH]1 [Prexasertib] | 24.8
Cn1cc(CNCC2CCN(c3ncc(C(=O)NO)cn3)CC2)c2ccccc21 [Quisinostat] | 11.5
CC(C)(C)c1cc(NC(=O)Nc2ccc(-c3cn4c(n3)sc3cc(OCCN5CCOCC5)ccc34)cc2)no1 [Quizartinib] | 0
Nc1cc(F)ccc1NC(=O)/C=C/c1cnn(C/C=C/c2ccccc2)c1 [RGFP966] | 0.1
COC(=O)c1ccc([C@H]2c3[nH]c4ccccc4c3C[C@H](C(=O)OC)N2C(=O)CCl)cc1 [RSL3] | 0
Cc1cnc(NC(=O)Nc2cc(Br)c(C)cc2OC[C@@H]2CNCCO2)cn1 [Rabusertib] | 0.1
Cc1cn(-c2cc(NC(=O)c3ccc(C)c(Nc4nccc(-c5cnccn5)n4)c3)cc(C(F)(F)F)c2)cn1 [Radotinib] | 0
CC(C)(C)Cn1c(N)nc2ccc(-c3[nH]c(C(C)(C)C)nc3-c3ccc(F)cc3)nc21 [Ralimetinib] | 2.9
O=C(c1ccc(OCCN2CCCCC2)cc1)c1c(-c2ccc(O)cc2)sc2cc(O)ccc12 [Raloxifene] | 0.5
Cc1nc(=O)c2cc(CN(C)c3ccc(C(=O)N[C@@H](CCC(=O)O)C(=O)O)s3)ccc2[nH]1 [Raltitrexed] | 10.7

test system: Kuramochi; assay: as above; conditions: exposure time: 72 h; concentration range: 5 concentrations over 10,000-fold range
Method in brief: as §1

Structure (SMILES) | drug sensitivity score
Cc1ccc(C(=O)Nc2ccc(CN3CCN(C)CC3)c(C(F)(F)F)c2)cc1C#Cc1cnc2cccnn12 [Ponatinib] | 9.3
C=CC(=O)N1CCC(Oc2cc3c(Nc4ccc(Cl)c(Cl)c4F)ncnc3cc2OC)CC1 [Poziotinib] | 1.9
CCCCc1nc2cc(/C=C/C(=O)NO)ccc2n1CCN(CC)CC [Pracinostat] | 13.5
CC[C@H](C)C(=O)O[C@H]1C[C@H](O)C=C2C=C[C@H](C)[C@H](CC[C@@H](O)C[C@@H](O)CC(=O)O)[C@H]21 [Pravastatin] | 0
C[C@]12C=CC(=O)C=C1CC[C@@H]1[C@@H]2[C@@H](O)C[C@@]2(C)[C@H]1CC[C@]2(O)C(=O)CO [Prednisolone] | 0
COc1cccc(OCCCN)c1-c1cc(Nc2cnc(C#N)cn2)n[nH]1 [Prexasertib] | 19.8
Cn1cc(CNCC2CCN(c3ncc(C(=O)NO)cn3)CC2)c2ccccc21 [Quisinostat] | 9.2
CC(C)(C)c1cc(NC(=O)Nc2ccc(-c3cn4c(n3)sc3cc(OCCN5CCOCC5)ccc34)cc2)no1 [Quizartinib] | 0
Nc1cc(F)ccc1NC(=O)/C=C/c1cnn(C/C=C/c2ccccc2)c1 [RGFP966] | 0.4
COC(=O)c1ccc([C@H]2c3[nH]c4ccccc4c3C[C@H](C(=O)OC)N2C(=O)CCl)cc1 [RSL3] | 0
Cc1cnc(NC(=O)Nc2cc(Br)c(C)cc2OC[C@@H]2CNCCO2)cn1 [Rabusertib] | 0.1
Cc1cn(-c2cc(NC(=O)c3ccc(C)c(Nc4nccc(-c5cnccn5)n4)c3)cc(C(F)(F)F)c2)cn1 [Radotinib] | 0.9
CC(C)(C)Cn1c(N)nc2ccc(-c3[nH]c(C(C)(C)C)nc3-c3ccc(F)cc3)nc21 [Ralimetinib] | 6.6
O=C(c1ccc(OCCN2CCCCC2)cc1)c1c(-c2ccc(O)cc2)sc2cc(O)ccc12 [Raloxifene] | 2.6
Cc1nc(=O)c2cc(CN(C)c3ccc(C(=O)N[C@@H](CCC(=O)O)C(=O)O)s3)ccc2[nH]1 [Raltitrexed] | 9.1

test system: OV90; assay: as above; conditions: exposure time: 72 h; concentration range: 5 concentrations over 10,000-fold range
Method in brief: as §1

Structure (SMILES) | drug sensitivity score
Cc1ccc(C(=O)Nc2ccc(CN3CCN(C)CC3)c(C(F)(F)F)c2)cc1C#Cc1cnc2cccnn12 [Ponatinib] | 6.9
C=CC(=O)N1CCC(Oc2cc3c(Nc4ccc(Cl)c(Cl)c4F)ncnc3cc2OC)CC1 [Poziotinib] | 0
CCCCc1nc2cc(/C=C/C(=O)NO)ccc2n1CCN(CC)CC [Pracinostat] | 14.6
CC[C@H](C)C(=O)O[C@H]1C[C@H](O)C=C2C=C[C@H](C)[C@H](CC[C@@H](O)C[C@@H](O)CC(=O)O)[C@H]21 [Pravastatin] | 0
C[C@]12C=CC(=O)C=C1CC[C@@H]1[C@@H]2[C@@H](O)C[C@@]2(C)[C@H]1CC[C@]2(O)C(=O)CO [Prednisolone] | 0.1
COc1cccc(OCCCN)c1-c1cc(Nc2cnc(C#N)cn2)n[nH]1 [Prexasertib] | 16.7
Cn1cc(CNCC2CCN(c3ncc(C(=O)NO)cn3)CC2)c2ccccc21 [Quisinostat] | 14.6
CC(C)(C)c1cc(NC(=O)Nc2ccc(-c3cn4c(n3)sc3cc(OCCN5CCOCC5)ccc34)cc2)no1 [Quizartinib] | 0.2
Nc1cc(F)ccc1NC(=O)/C=C/c1cnn(C/C=C/c2ccccc2)c1 [RGFP966] | 1.9
COC(=O)c1ccc([C@H]2c3[nH]c4ccccc4c3C[C@H](C(=O)OC)N2C(=O)CCl)cc1 [RSL3] | 0
Cc1cnc(NC(=O)Nc2cc(Br)c(C)cc2OC[C@@H]2CNCCO2)cn1 [Rabusertib] | 1.6
Cc1cn(-c2cc(NC(=O)c3ccc(C)c(Nc4nccc(-c5cnccn5)n4)c3)cc(C(F)(F)F)c2)cn1 [Radotinib] | 1.3
CC(C)(C)Cn1c(N)nc2ccc(-c3[nH]c(C(C)(C)C)nc3-c3ccc(F)cc3)nc21 [Ralimetinib] | 4.1
O=C(c1ccc(OCCN2CCCCC2)cc1)c1c(-c2ccc(O)cc2)sc2cc(O)ccc12 [Raloxifene] | 1.9
Cc1nc(=O)c2cc(CN(C)c3ccc(C(=O)N[C@@H](CCC(=O)O)C(=O)O)s3)ccc2[nH]1 [Raltitrexed] | 6.1
